According to patent publication US20210137911A1, “NOVEL CHRONOTHERAPY BASED ON CIRCADIAN RHYTHMS” (THE TRUSTEES OF THE UNIVERSITY OF PENNSYLVANIA, priority 2014, published 2021):
Read-outs that look alike come from different tables or passages of the source.

Legend:
[1] = Trial of bedtime versus awakening administered Valsartan, blood pressure; type: in vivo
Text: Taking an angiotensin receptor blocker (ARB) or an […] (ACE) inhibitor before bedtime is known to cause a drop in blood pressure. […] Thus, current treatment methods are insufficient to induce a dip in non-dippers.

[2] = cited from earlier work
[3] = cited from earlier work; remark: listed apart in the source
[4] = half-life of therapeutic compound as listed in Table 1
[5] = half-life of top selling therapeutic compounds (Table 1)

| Molecule | ½ Life ([3]; in vivo) [h] | other results |
| --- | --- | --- |
| CCCCC(=O)N(Cc1ccc(-c2ccccc2-c2nnn[nH]2)cc1)[C@H](C(=O)O)C(C)C [Valsartan] |  | net blood pressure difference bedtime vs awakening, first value of printed pair ([1]; bedtime minus awakening): 8 mmHg; net blood pressure difference bedtime vs awakening, second value of printed pair ([1]; bedtime minus awakening): 6 mmHg; better result of bedtime group than the awakening group ([1]; bedtime vs awakening group): 10 mmHg; time at which concentration in plasma reaches the maximum after administration [2]: 2 to 4 h |
| NC(=O)CC[C@@H]1NC(=O)[C@H](Cc2ccccc2)NC(=O)[C@H](Cc2ccc(O)cc2)NC(=O)[C@@H](N)CSSC[C@@H](C(=O)N2CCC[C@H]2C(=O)N[C@@H](CCCN=C(N)N)C(=O)NCC(N)=O)NC(=O)[C@H](CC(N)=O)NC1=O [Vasopressin] | 0.166 |  |
| CC(=O)O[C@H]1C[C@@H]2CC[C@@H]3[C@H](CC[C@@]4(C)[C@H]3C[C@H]([N+]3(C)CCCCC3)[C@@H]4OC(C)=O)[C@@]2(C)C[C@@H]1N1CCCCC1 [Vecuronium] | 0.85 |  |
| N#C[C@@H]1CCCN1C(=O)CNC12CC3CC(CC(O)(C3)C1)C2 [Vildagliptin] | 1.5 |  |
| CC[C@]1(O)C[C@H]2CN(CCc3c([nH]c4ccccc34)[C@@](C(=O)OC)(c3cc4c(cc3OC)N(C=O)[C@H]3[C@@](O)(C(=O)OC)[C@H](OC(C)=O)[C@]5(CC)C=CCN6CC[C@]43[C@@H]65)C2)C1 [Vincristine] | 5 |  |
| O=C(CCCCCCC(=O)Nc1ccccc1)NO [Vorinostat] | 2 |  |
| CC(=O)N[C@H]1[C@H]([C@H](O)[C@H](O)CO)OC(C(=O)O)=C[C@@H]1N=C(N)N [Zanamivir] | 2.5 |  |
| Cc1cn([C@H]2C[C@H](N=[N+]=[N-])[C@@H](CO)O2)c(=O)[nH]c1=O [Zidovudine] | 1.1 |  |
| CN(C)CCc1c[nH]c2ccc(C[C@H]3COC(=O)N3)cc12 [Zolmitriptan] | 3 |  |
| Cc1ccc(-c2nc3ccc(C)cn3c2CC(=O)N(C)C)cc1 [Zolpidem] | 2.6 |  |
| CN1CCN(C(=O)OC2c3nccnc3C(=O)N2c2ccc(Cl)cn2)CC1 (stereo not drawn) [Zopiclone] | 5 |  |
| O=C(O)c1cccnc1 [niacin, reference compound] |  | ½ Life [3, 4]: 0.33 h; half-life ([3]; see Table 1): 19.8 min |
| Aldesleukin | 0.216 |  |
| Alglucosidase alfa | 2.3 |  |
| Anakinra | 4 |  |
| Bleomycin |  | ½ Life [3, 5]: 1.916 h |
| Corticotropin (SYSMEHFRWGKPVGKKRRPVKVYPNGAEDESAEAFPLEF; Corticotropin; UniProt P01189 138-176, looked up) |  | ½ Life [3, 5]: 0.25 h |
| Defibrotide | 1 |  |
| Denileukin diftitox |  | ½ Life [3, 5]: 1.166 h |
| Drotrecogin alfa | 5.5 |  |
| Enoxaparin | 4.5 |  |

| Molecule | ½ Life ([3]; in vivo) [h] | other results |
| --- | --- | --- |
| Galsulfase | 0.15 |  |
| Heparin | 1.5 |  |
| Insulin Detemir | 5 |  |
| Insulin Glulisine | 0.7 |  |
| Insulin Lispro | 1 |  |
| Interferon Alfa-2a, Recombinant | 2 |  |
| Interferon alfacon-1 | 1.3 |  |
| Leptin | 0.415 |  |
| Mecasermin | 2 |  |
| Muromonab | 0.8 |  |
| Nesiritide | 0.3 |  |
| Nitroprusside | 0.033 |  |
| OspA lipoprotein |  | ½ Life [3, 4]: 1.2 h |
| Pegaptanib | 3 |  |
| Pentosan Polysulfate | 4.8 |  |
| Rituximab | 0.8 |  |
| Tinzaparin | 1.366 |  |
| Tositumomab | 0.8 |  |
| Urokinase | 0.2 |  |
| Vitamin A | 1.9 |  |
